Test results: patent US4160028A, “Substituted 2-cyclopropyl-chromones and pharmaceutical compositions and use thereof” (Carlo Erba S.p.A., priority 1977, dated 1979)

Assay: seven days indicative acute toxicity after oral administration
Conditions: rat, in vivo, rats
Protocol: Seven days indicative acute toxicity after oral administration was assessed for the compounds of the invention. For example, for the compound identified by the code K 13262, a LD50 >400 mg/kg in rats was obtained.

SMILES: CCCc1c([C@@H]2C[C@H]2c2ccccc2)oc2ccc(C(=O)O)cc2c1=O (relative stereo) [K 13262, trans 6-carboxy-3-propyl-2-(2-phenyl-cyclopropyl)-chromone]
- LD50 at 168 h: > 400 mg/kg
